Assay results published in US20230257366A1, “SULFUR-CONTAINING ISOINDOLINE DERIVATIVE, AND PREPARATION METHOD THEREFOR AND MEDICAL USE THEREOF” (JIANGSU HENGRUI PHARMACEUTICALS CO., LTD., priority 2020, published 2023).

Key:
NCI-H929 cells = assay: NCI-H929 proliferation experiment (CellTiter-Glo, 5 days); format: cell-based; settings: Homo sapiens, 120 h, 5 days incubation, read-out: IC50 values for the inhibition of proliferation of NCI-H929 cells
Protocol: The following method was used to determine the inhibitory activity of the compounds of the present disclosure on the proliferation of NCI-H929 cells. The experimental method was briefly described as follows.
NCI-H929 cells (ATCC, CRL-9068) were cultured in a complete medium (RPMI 1640 medium (Hyclone, SH30809.01) containing 10% fetal bovine serum (Corning, 35-076-CV) and 0.05 mM 2-mercaptoethanol (Sigma, M3148)). On the first day of the experiment, NCI-H929 cells were seeded in a 96-well plate at a density of 6000 cells/well with a complete medium to form 100 μL of cell suspension per well, and 10 μL of test compound prepared in a complete medium and diluted in a gradient was added to each well. The compound was firstly dissolved in DMSO, with an initial concentration of 10 mM, and then subjected to serial dilution at a 5-fold concentration gradient for a total of 9 concentration points, with a blank control of 100% DMSO. Another 5 μL of the compound dissolved in DMSO was added to 95 μL of complete medium, i.e., the compound was diluted 20-fold with the complete medium. Finally the compound diluted in the complete medium at 10 μL/well was added to the cell suspension, wherein the final concentrations of the compound were 9 concentration points obtained by 5-fold gradient dilution starting from 50 μM. A blank control containing 0.5% DMSO was set. The plate was incubated in a cell incubator at 37° C. with 5% CO2 for 5 days. On the sixth day, the 96-well cell culture plate was taken out, added with a CellTiter-Glo® luminescent cell activity detect reagent (Promega, G7573) at 50 μL/well, left to stand at room temperature for 10 min, and read for the luminescence signal values using a multi-mode microplate reader (PerkinElmer, EnVision 2015). IC50 values for the inhibitory activity of the compounds were calculated using Graphpad Prism software, with the results shown in Table 1.

[1] = Plasma stability in monkey plasma (LC-MS/MS); format: in vitro ADME; settings: cryopreserved monkey plasma; monkey plasma, 37° C., 1 μM; read-out: T1/2 (min)/monkey
Protocol: The stability of the compound of Example 6 and the control example CC-92480 after incubation in cryopreserved monkey plasma at 37° C. for 0 min, 15 min, 30 min, 60 min, 120 min, 180 min and 240 min was determined quantitatively by LC-MS/MS.
Compound of Example 6 and control example CC-92480.
Monkey plasma was purchased from Shanghai Medicilon Inc.
A certain amount of the compound of Example 6 was weighed and prepared with DMSO to obtain a 30 mM stock solution. A certain volume of the stock solution was diluted into a solution I at a concentration of 1600 μM with DMSO; and a certain volume of the solution I at 1600 μM was diluted with 50% methanol to obtain a working solution II at a concentration of 16 μM. A 30 mM stock solution, a 1600 μM solution I′, and a 16 μM working solution II′ of CC-92480 were prepared as described above.
5 μL of the working solutions at 16 μM of the compound of Example 6 and the control example CC-92480 were each added to 75 μL of plasma to make the final concentration of the compounds of 1 μM. The samples were incubated under a 37° C. water bath for 0 min, 15 min, 30 min, 60 min, 90 min, 120 min, and 180 min. […] The supernatant was analyzed by LC-MS with a sample injection volume of 2 μL.

[2] = Effect on body weight of tumor-bearing CB-17 SCID mice; format: in vivo; settings: 1 mg/kg qd, 11 days
Protocol: (§1) NCI-H929 cells in a logarithmic growth phase were inoculated subcutaneously into the right flank of 30 female CB-17 SCID mice at 5×10^6 cells/mouse/100 μL (containing 50 μL of Matrigel). After 10 days, when the tumor volume of the tumor-bearing mice reached about 200 mm^3, the mice were randomly divided into 3 groups according to the tumor volume and body weight: vehicle control group, CC-92480-1 mpk, compound of Example 6-1 mpk, with 7 mice in each group. The day of grouping was set as Day 0 (D0), and intragastric administration was performed once a day for 11 days (Table 2). For the tumor-bearing mice, the tumor volume was measured with a vernier caliper and the body weight was measured with a balance twice a week, and the data were recorded.
The effect of the compound of Example 6 and the control example CC-92480 on the body weight of CB-17 SCID mice is shown in FIG. 2.

NCI-H929 xenograft tumor = assay: Pharmacodynamic test: NCI-H929 xenograft tumor in CB-17 SCID mice; format: in vivo
Protocol: This experiment was performed to evaluate the inhibition effect of the compound of Example 6 and the control example CC-92480 on the growth of human multiple myeloma cell NCI-H929 xenograft tumor in CB-17 SCID mice.
Compound of Example 6; control example CC-92480 (see compound 2 of WO2019014100A1, synthesized according to the method disclosed therein)
Solutions of the compound of Example 6 and the control example CC-92480 were prepared with 5% DMSO+20% PEG400+70% (10% TPGS)+5% (1% HPMC K100LV).
Thirty CB-17 SCID female mice, purchased from Beijing Vital River Laboratory Animal Technology Co., Ltd. (certificate No. 20170011006049, SCXK (Shanghai) 2017-0011), weighing about 19 g at the time of purchase, were bred at 5 mice/cage (in 12/12 hour light/dark cycle, at a constant temperature of 23±1° C. and humidity of 50%-60%) and had free access to food and water.
After adaptive feeding, the CB-17 SCID mice were grouped as follows:
as §1
All data were plotted and statistically analyzed using Excel and GraphPad Prism 5 software.
The tumor volume (V) was calculated as follows: V=½×a×b^2, where a and b represent length and width, respectively.
The relative tumor proliferation rate T/C (%)=(T−T0)/(C−C0)×100(%), where T and C are the tumor volume of animals at the end of the experiment in the treatment group and control group, respectively; T0 and C0 are the tumor volume of animals at the beginning of the experiment in the treatment group and control group, respectively.
Tumor growth inhibition TGI (%)=1−T/C (%), and when TGI (%) exceeds 100%, no specific value will be shown, and it is expressed only by >100%.
Tumor regression (%)=[(T0−T)/T0]×100(%).

N#Cc1ccc(N2CCC(Sc3ccc(COc4cccc5c4CN([C@H]4CCC(=O)NC4=O)C5=O)cn3)CC2)c(F)c1 [Compound 6, (S)-4-(4-((5-(((2-(2,6-dioxopiperidin-3-yl)-1-oxoisoindolin-4-yl)oxy)methyl)pyridin-2-yl)thio)piperidin-1-yl)-3-fluorobenzonitrile]
IC50 (NCI-H929 cells): 0.02 nM | half-life at 1 µM [1]: 806 min | influence on the body weight of mice [2]: no influence on the body weight of mice | tumor inhibition rate (TGI) (NCI-H929 xenograft tumor; 1 mg/kg qd, 11 days after administration): > 100% | Mean tumor volume D0 (NCI-H929 xenograft tumor; 1 mg/kg qd, baseline at day of grouping (D0), n=7): 155.4 mm^3 | Number of remaining animals/group (NCI-H929 xenograft tumor; 1 mg/kg qd/11d po): 7/7 | % tumor regression D11 (NCI-H929 xenograft tumor; 1 mg/kg qd/11d po (i.g.), D11): 88% | Mean tumor volume D11 (NCI-H929 xenograft tumor; 1 mg/kg qd/11d po (i.g.), D11, n=7): 18.6 mm^3
